Measured values reported in patent US12077503B2, “Substituted cyclic amides and their use as herbicides” (FMC CORPORATION, priority 2015, dated 2024).

What was measured:
Type in all cases: in vivo
[1] = test system: sedge, umbrella (small-flower umbrella sedge, Cyperus difformis); experiment: Test B flooded paddy test; conditions: Cyperus difformis, 250 g ai/ha, Flood; 0 to 100 scale where 0 is no effect and 100 is complete control; read-out: Sedge, Umbrella plant response rating
Outline: (§1)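 Plants at 2-leaf stage flooded to 3 cm above soil, with compounds applied directly to paddy water and that depth maintained. Plants kept in greenhouse 13–15 d. Visual rating versus controls on a 0 (no effect) to 100 (complete control) scale.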

[2] = test system: barnyardgrass (Echinochloa crus-galli); experiment: Test B flooded paddy test; conditions: Echinochloa crus-galli, 250 g ai/ha, Flood; 0 to 100 scale where 0 is no effect and 100 is complete control; read-out: Barnyardgrass plant response rating
Outline: as §1

rice (Oryra sativa) = experiment: Test B flooded paddy test; conditions: Oryza sativa, 250 g ai/ha, Flood; 0 to 100 scale where 0 is no effect and 100 is complete control; read-out: Rice plant response rating
Outline: as §1

[3] = test system: ducksalad (Heteranthera limosa); experiment: Test B flooded paddy test; conditions: Heteranthera limosa, 250 g ai/ha, Flood; 0 to 100 scale where 0 is no effect and 100 is complete control; read-out: Ducksalad plant response rating
Outline: as §1

[4] = test system: ryegrass, Italian (Italian ryegrass, Lolium multiflorum); experiment: Test A preemergence; conditions: Lolium multiflorum, pre-emergence, 240 h, 0 to 100 scale where 0 is no effect and 100 is complete control, read-out: Ryegrass, Italian plant response rating; for pest or weed control at 31 g/ha: 31 g ai/ha, Preemergence; for pest or weed control at 125 g/ha: 125 g ai/ha, preemergence, visual injury rating, approximately 10 d
Outline: (§2)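 Seeds sprayed preemergence with a directed soil spray, or plants at 2 to 10 cm height and one- to two-leaf stage sprayed postemergence, with test chemicals in a non-phytotoxic solvent mixture containing surfactant, in loam soil–sand blend. Injury rated visually against untreated controls after about 10 d in greenhouse, 0 (no effect) to 100 (complete control).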

[5] = test system: barnyardgrass (Echinochloa crus-galli); experiment: Test A preemergence; conditions: Echinochloa crus-galli, pre-emergence, 240 h, 0 to 100 scale where 0 is no effect and 100 is complete control, read-out: Barnyardgrass plant response rating; for pest or weed control at 31 g/ha: 31 g ai/ha, Preemergence; for pest or weed control at 125 g/ha: 125 g ai/ha, preemergence, visual injury rating, approximately 10 d
Outline: as §2

Kochia (Kochia scoparia) [6] = experiment: Test A preemergence; conditions: Bassia scoparia, pre-emergence, 240 h, 0 to 100 scale where 0 is no effect and 100 is complete control, read-out: Kochia plant response rating; for pest or weed control at 31 g/ha: 31 g ai/ha, Preemergence; for pest or weed control at 125 g/ha: 125 g ai/ha, preemergence, visual injury rating, approximately 10 d
Outline: as §2

[7] = test system: giant foxtail (Setaria faberii); experiment: Test A preemergence; conditions: Setaria faberi, pre-emergence, 240 h, 0 to 100 scale where 0 is no effect and 100 is complete control, read-out: Foxtail, Giant plant response rating; for pest or weed control at 31 g/ha: 31 g ai/ha, Preemergence; for pest or weed control at 125 g/ha: 125 g ai/ha, preemergence, visual injury rating, approximately 10 d
Outline: as §2

[8] = test system: pigweed (Amaranthus retroflexus); experiment: Test A preemergence; conditions: Amaranthus retroflexus, pre-emergence, 240 h, 0 to 100 scale where 0 is no effect and 100 is complete control, read-out: Pigweed plant response rating; for pest or weed control at 31 g/ha: 31 g ai/ha, Preemergence; for pest or weed control at 125 g/ha: 125 g ai/ha, preemergence, visual injury rating, approximately 10 d
[9] = test system: ragweed (common ragweed, Ambrosia elatior); experiment: Test A preemergence; conditions: Ambrosia artemisiifolia, pre-emergence, 240 h, 0 to 100 scale where 0 is no effect and 100 is complete control, read-out: Ragweed plant response rating; for pest or weed control at 31 g/ha: 31 g ai/ha, Preemergence; for pest or weed control at 125 g/ha: 125 g ai/ha, preemergence, visual injury rating, approximately 10 d
Outline: as §2

[10] = test system: ryegrass, Italian (Italian ryegrass, Lolium multiflorum); experiment: Test A postemergence; conditions: Lolium multiflorum, post-emergence, 240 h, read-out: Ryegrass, Italian plant response rating (0 to 100 scale); for pest or weed control at 125 g/ha: 125 g ai/ha, postemergence, visual injury vs untreated controls after approx. 10 d, 0 = no effect, 100 = complete control; for pest or weed control at 31 g/ha: Postemergence, 31 g ai/ha, 0 is no effect, 100 is complete control
Outline: as §2

[11] = test system: barnyardgrass (Echinochloa crus-galli); experiment: Test A postemergence; conditions: Echinochloa crus-galli, post-emergence, 240 h, read-out: Barnyardgrass plant response rating (0 to 100 scale); for pest or weed control at 125 g/ha: 125 g ai/ha, postemergence, visual injury vs untreated controls after approx. 10 d, 0 = no effect, 100 = complete control; for pest or weed control at 31 g/ha: Postemergence, 31 g ai/ha, 0 is no effect, 100 is complete control
Outline: as §2

corn (Zea mays) = experiment: Test A postemergence; conditions: Zea mays, post-emergence, 240 h, read-out: Corn plant response rating (0 to 100 scale); for plant injury at 125 g/ha: 125 g ai/ha, postemergence, visual injury vs untreated controls after approx. 10 d, 0 = no effect, 100 = complete control; for plant injury at 31 g/ha: Postemergence, 31 g ai/ha, 0 is no effect, 100 is complete control
Outline: as §2

Kochia (Kochia scoparia) [12] = experiment: Test A postemergence; conditions: Bassia scoparia, post-emergence, 240 h, read-out: Kochia plant response rating (0 to 100 scale); for pest or weed control at 125 g/ha: 125 g ai/ha, postemergence, visual injury vs untreated controls after approx. 10 d, 0 = no effect, 100 = complete control; for pest or weed control at 31 g/ha: Postemergence, 31 g ai/ha, 0 is no effect, 100 is complete control
Outline: as §2

[13] = test system: giant foxtail (Setaria faberii); experiment: Test A postemergence; conditions: Setaria faberi, post-emergence, 240 h, read-out: Foxtail, Giant plant response rating (0 to 100 scale); for pest or weed control at 125 g/ha: 125 g ai/ha, postemergence, visual injury vs untreated controls after approx. 10 d, 0 = no effect, 100 = complete control; for pest or weed control at 31 g/ha: Postemergence, 31 g ai/ha, 0 is no effect, 100 is complete control
Outline: as §2

[14] = test system: pigweed (Amaranthus retroflexus); experiment: Test A postemergence; conditions: Amaranthus retroflexus, post-emergence, 240 h, read-out: Pigweed plant response rating (0 to 100 scale); for pest or weed control at 125 g/ha: 125 g ai/ha, postemergence, visual injury vs untreated controls after approx. 10 d, 0 = no effect, 100 = complete control; for pest or weed control at 31 g/ha: Postemergence, 31 g ai/ha, 0 is no effect, 100 is complete control
Outline: as §2

[15] = test system: blackgrass (Alopecurus myosuroides); experiment: Test A postemergence; conditions: Alopecurus myosuroides, post-emergence, 240 h, read-out: Blackgrass plant response rating (0 to 100 scale); for pest or weed control at 125 g/ha: 125 g ai/ha, postemergence, visual injury vs untreated controls after approx. 10 d, 0 = no effect, 100 = complete control; for pest or weed control at 31 g/ha: Postemergence, 31 g ai/ha, 0 is no effect, 100 is complete control
Outline: as §2

[16] = test system: ragweed (common ragweed, Ambrosia elatior); experiment: Test A postemergence; conditions: Ambrosia artemisiifolia, post-emergence, 240 h, read-out: Ragweed plant response rating (0 to 100 scale); for pest or weed control at 125 g/ha: 125 g ai/ha, postemergence, visual injury vs untreated controls after approx. 10 d, 0 = no effect, 100 = complete control; for pest or weed control at 31 g/ha: Postemergence, 31 g ai/ha, 0 is no effect, 100 is complete control
Outline: as §2

[17] = test system: Galium (catchweed bedstraw, Galium aparine); experiment: Test A postemergence; conditions: Galium, post-emergence, 240 h, read-out: Galium plant response rating (0 to 100 scale); for pest or weed control at 125 g/ha: 125 g ai/ha, postemergence, visual injury vs untreated controls after approx. 10 d, 0 = no effect, 100 = complete control; for pest or weed control at 31 g/ha: Postemergence, 31 g ai/ha, 0 is no effect, 100 is complete control
Outline: as §2

[18] = test system: wheat (Triticum aestivum); experiment: Test A postemergence; conditions: Triticum aestivum, post-emergence, 240 h, read-out: Wheat plant response rating (0 to 100 scale); for plant injury at 31 g/ha: Postemergence, 31 g ai/ha, 0 is no effect, 100 is complete control
Outline: as §2

SMILES: N#Cc1ccc([C@H]2CNC(=O)[C@@H]2C(=O)Nc2cccc(F)c2F)cc1F [Compound 1193]
- pest or weed control at 250 g/ha [1]: 0%
- pest or weed control at 250 g/ha [2]: 75%
- pest or weed control at 250 g/ha (rice (Oryra sativa)): 30%
- pest or weed control at 250 g/ha [3]: 90%
- pest or weed control at 31 g/ha [4]: 0%
- pest or weed control at 125 g/ha [4]: 0%
- pest or weed control at 31 g/ha [5]: 40%
- pest or weed control at 125 g/ha [5]: 90%
- pest or weed control at 31 g/ha (Kochia (Kochia scoparia) [6]): 0%
- pest or weed control at 125 g/ha (Kochia (Kochia scoparia) [6]): 0%
- pest or weed control at 31 g/ha [7]: 0%
- pest or weed control at 125 g/ha [7]: 80%
- pest or weed control at 31 g/ha [8]: 0%
- pest or weed control at 125 g/ha [8]: 0%
- pest or weed control at 31 g/ha [9]: 0%
- pest or weed control at 125 g/ha [9]: 0%
- pest or weed control at 125 g/ha [10]: 0%
- pest or weed control at 31 g/ha [10]: 0%
- pest or weed control at 125 g/ha [11]: 70%
- pest or weed control at 31 g/ha [11]: 0%
- plant injury at 125 g/ha (corn (Zea mays)): 0%
- plant injury at 31 g/ha (corn (Zea mays)): 0%
- pest or weed control at 125 g/ha (Kochia (Kochia scoparia) [12]): 0%
- pest or weed control at 31 g/ha (Kochia (Kochia scoparia) [12]): 0%
- pest or weed control at 125 g/ha [13]: 30%
- pest or weed control at 31 g/ha [13]: 0%
- pest or weed control at 125 g/ha [14]: 0%
- pest or weed control at 31 g/ha [14]: 0%
- pest or weed control at 125 g/ha [15]: 0%
- pest or weed control at 31 g/ha [15]: 0%
- pest or weed control at 125 g/ha [16]: 0%
- pest or weed control at 31 g/ha [16]: 0%
- pest or weed control at 125 g/ha [17]: 0%
- pest or weed control at 31 g/ha [17]: 0%
- plant injury at 125 g/ha ([18]; 125 g ai/ha, postemergence, visual injury vs untreated controls after approx. 10 d, 0 = no effect, 100 = complete control): 0%
- plant injury at 31 g/ha [18]: 0%

SMILES: O=C1NC[C@H](c2ccc(F)c(Oc3ccccc3)c2)[C@H]1C(=O)Nc1cccc(F)c1F [Compound 1258]
- pest or weed control at 250 g/ha [1]: 0%
- pest or weed control at 250 g/ha [2]: 40%
- pest or weed control at 250 g/ha (rice (Oryra sativa)): 0%
- pest or weed control at 250 g/ha [3]: 0%
- pest or weed control at 31 g/ha [4]: 0%
- pest or weed control at 125 g/ha [4]: 0%
- pest or weed control at 31 g/ha [5]: 0%
- pest or weed control at 125 g/ha [5]: 30%
- pest or weed control at 31 g/ha (Kochia (Kochia scoparia) [6]): 0%
- pest or weed control at 125 g/ha (Kochia (Kochia scoparia) [6]): 0%
- pest or weed control at 31 g/ha [7]: 40%
- pest or weed control at 125 g/ha [7]: 70%
- pest or weed control at 31 g/ha [8]: 0%
- pest or weed control at 125 g/ha [8]: 0%
- pest or weed control at 31 g/ha [9]: 0%
- pest or weed control at 125 g/ha [9]: 0%
- pest or weed control at 125 g/ha [10]: 0%
- pest or weed control at 31 g/ha [10]: 0%
- pest or weed control at 125 g/ha [11]: 70%
- pest or weed control at 31 g/ha [11]: 30%
- plant injury at 125 g/ha (corn (Zea mays)): 40%
- plant injury at 31 g/ha (corn (Zea mays)): 0%
- pest or weed control at 125 g/ha (Kochia (Kochia scoparia) [12]): 0%
- pest or weed control at 31 g/ha (Kochia (Kochia scoparia) [12]): 0%
- pest or weed control at 125 g/ha [13]: 60%
- pest or weed control at 31 g/ha [13]: 30%
- pest or weed control at 125 g/ha [14]: 30%
- pest or weed control at 31 g/ha [14]: 0%
- pest or weed control at 125 g/ha [15]: 0%
- pest or weed control at 31 g/ha [15]: 0%
- pest or weed control at 125 g/ha [16]: 0%
- pest or weed control at 31 g/ha [16]: 0%
- pest or weed control at 125 g/ha [17]: 80%
- pest or weed control at 31 g/ha [17]: 70%
- plant injury at 31 g/ha [18]: 0%
